In brackets after ≈: the same amount, converted by molar mass.
Tests used:
[1] = test system: Erythrocin-resistant strain C. difficile LCN 0081; assay: MIC by broth dilution method (CLSI M11-A7); format: cell-based; conditions: Clostridioides difficile, read-out: Sensitivity of C. difficile (MIC)
[2] = test system: clinically isolated strain LCN 001; assay: MIC by broth dilution method (CLSI M11-A7); format: cell-based; conditions: Clostridioides difficile, LCN001, read-out: Sensitivity of C. difficile (MIC)
[3] = test system: Reduced-sensitivity strain to Vancomycin C. difficile LCN 0012; assay: MIC by broth dilution method (CLSI M11-A7); format: cell-based; conditions: Clostridioides difficile
[4] = test system: Clindamycin-resistant strain C. difficile LCN 0027; assay: MIC by broth dilution method (CLSI M11-A7); format: cell-based; conditions: Clostridioides difficile, read-out: Sensitivity of C. difficile (MIC)
[5] = test system: Reduced-sensitivity strain to Metronidazole C. difficile LCN 0048; assay: MIC by broth dilution method (CLSI M11-A7); format: cell-based; conditions: Clostridioides difficile
[6] = test system: C. difficile ATCC 9689; assay: MIC by broth dilution method (CLSI M11-A7); format: cell-based; conditions: Clostridioides difficile, ATCC9689, read-out: Sensitivity of C. difficile (MIC)
[7] = Pharmacokinetics of thiopeptcin after oral (intragastric) administration, plasma by LC-MS/MS; format: in vivo; conditions: after intragastric administration in rats, all doses and time points
Procedure: 30 μl of blood or urine sample was added into 90 μl of methanol containing 5 ng/ml verapamil. After vortexing for 3 min and centrifuging at 14,000 rpm for 5 min, 80 μl of supernatant was taken for LC-MS/MS analysis.
Conditions for LC were as follows: • Column: Waters Symmetry 300 C18 3.5 μm 2.1*100 mm; • Mobile phase A: 10 mM ammonium acetate+0.02% aqueous ammonia solution; mobile phase B: methanol; • Duration of analysis: 5.2 min; injection volume: 5 μL; column temperature: 25° C.; gradient elution:
Conditions for MS/MS analysis were as follows: • Mass Spectrometer: Positive Ion Mode (Agilent 6460B) • Detection of ion pairs: Thiopeptcin: 1437.3-172.0, fragment=135, CE=22; • Verapamil (internal standard): 455.2→165.1, fragment=135, CE=25; • Mass spectrometry parameters: gas temp at 350 ° C.; gas flow at 10 L/min; nebulizer of 40 psi; sheath gas flow at 10 L/min and sheath gas heater at 400° C.
Preparation of thiopeptcin: Certain amount of thiopeptcin was dissolved in a mixed solvent of pH 5.0 containing 10% PEG400, 1% Tween 80 and 5 mg/ml citric acid. The solution was shaken to be clear for intragastric administration.
Male rats were divided into 4 groups with high, medium, and low doses according to experimental purposes. The high dose group was 50 mg/kg, the middle dose group was 25 mg/kg, the low-1 dose group was 5 mg/kg and the low-2 dose group was 1 mg/kg. […]

| plasma concentration of thiopeptcin (below limit of quantification) [7] | SMILES | MIC [1] | MIC [2] | MIC [3] | MIC [4] | MIC [5] | MIC [6] |
| --- | --- | --- | --- | --- | --- | --- | --- |
| < 1 ng/mL | C=C(NC(=O)c1csc(-c2nc3c(cc2O)-c2nc(cs2)C(=O)N[C@@H]([C@@H](C)O)C(=O)N/C(=C(\C)OC)c2nc(cs2)C(=O)N[C@@H]2c4nc(cs4)C(=O)N[C@@H](COC(=O)c4c5c6c(cccc6n4O)COC(=O)[C@@H](OC4C[C@](C)(O)[C@H](N(C)C)[C@H](C)O4)C2OC5)c2nc-3cs2)n1)C(N)=O (stereo partly shown) [Thiopeptcin] | 0.005 µg/mL (≈ 0.00348 µM) | 0.025 µg/mL (≈ 0.0174 µM) | 0.025 to 0.05 µg/mL (≈ 0.0174 to 0.0348 µM) | 0.025 µg/mL (≈ 0.0174 µM) | 0.005 to 0.01 µg/mL (≈ 0.00348 to 0.00696 µM) | 0.005 µg/mL (≈ 0.00348 µM) |
| – | CN[C@H](CC(C)C)C(=O)N[C@H]1C(=O)N[C@@H](CC(N)=O)C(=O)N[C@H]2C(=O)N[C@H]3C(=O)N[C@H](C(=O)N[C@H](C(=O)O)c4cc(O)cc(O)c4-c4cc3ccc4O)[C@H](O)c3ccc(c(Cl)c3)Oc3cc2cc(c3O[C@@H]2O[C@H](CO)[C@@H](O)[C@H](O)[C@H]2O[C@H]2C[C@](C)(N)[C@H](O)[C@H](C)O2)Oc2ccc(cc2Cl)[C@H]1O [Vancomycin, reference compound] | 1.5 µg/mL (≈ 1.04 µM) | 0.5 µg/mL (≈ 0.345 µM) | 4 to 8 µg/mL (≈ 2.76 to 5.52 µM) | 1.5 µg/mL (≈ 1.04 µM) | 0.8 to 3 µg/mL (≈ 0.552 to 2.07 µM) | 0.25 µg/mL (≈ 0.173 µM) |

Source: patent US20190231844A1, “ORAL APPLICATION OF THIOPEPTCIN” (NANJING BIOTICA PHARMACEUTICAL COMPANY, priority 2015, published 2019)
